Reference: the NIST ThermoML archive (doi:10.1021/je700740e)
Numbers after ± are expanded uncertainties.

Conditions: Liquid; for mass density: Vibrating tube method; for viscosity: Vibrating wire viscometry

CCOC(=O)CCCCC(=O)OCC [diethyl hexanedioate]
Conditions	mass density [kg/m3]	viscosity [mPa·s]
303.15 K, 100 kPa	998.842 ± 2	2.786 ± 0.059
303.15 K, 4520 kPa	1001.81 ± 2	2.909 ± 0.062
303.15 K, 9610 kPa	1005.24 ± 2	3.061 ± 0.065
303.15 K, 14700 kPa	1008.51 ± 2	3.226 ± 0.068
303.15 K, 19790 kPa	1012.52 ± 2	3.343 ± 0.071
313.15 K, 100 kPa	989.86 ± 2	2.257 ± 0.048
313.15 K, 4520 kPa	993.535 ± 2	2.335 ± 0.05
313.15 K, 9630 kPa	996.693 ± 2	2.472 ± 0.053
313.15 K, 14750 kPa	1000.42 ± 2	2.589 ± 0.055
313.15 K, 19890 kPa	1003.55 ± 2	2.726 ± 0.058
323.15 K, 100 kPa	981.395 ± 2	1.846 ± 0.039
323.15 K, 4520 kPa	984.72 ± 2	1.932 ± 0.041
323.15 K, 9600 kPa	988.74 ± 2	2.021 ± 0.043
323.15 K, 14690 kPa	992.273 ± 2	2.126 ± 0.045
323.15 K, 19710 kPa	995.581 ± 2	2.23 ± 0.048
333.15 K, 100 kPa	971.597 ± 2	1.58 ± 0.034
333.15 K, 4520 kPa	975.516 ± 2	1.642 ± 0.035
333.15 K, 9630 kPa	979.685 ± 2	1.716 ± 0.037
333.15 K, 14710 kPa	983.483 ± 2	1.802 ± 0.039
333.15 K, 19710 kPa	987.107 ± 2	1.886 ± 0.04
343.15 K, 100 kPa	962.622 ± 1.9	1.35 ± 0.029
343.15 K, 4510 kPa	966.544 ± 2	1.407 ± 0.03
343.15 K, 9600 kPa	970.932 ± 2	1.471 ± 0.032
343.15 K, 14700 kPa	975.031 ± 2	1.542 ± 0.033
343.15 K, 19700 kPa	978.932 ± 2	1.608 ± 0.035
353.15 K, 100 kPa	953.224 ± 1.9	1.179 ± 0.026
353.15 K, 4520 kPa	957.353 ± 1.9	1.227 ± 0.027
353.15 K, 9620 kPa	962.118 ± 1.9	1.28 ± 0.028
353.15 K, 14710 kPa	966.479 ± 2	1.338 ± 0.029
353.15 K, 19680 kPa	970.392 ± 2	1.402 ± 0.03
363.15 K, 100 kPa	943.203 ± 1.9	1.041 ± 0.023
363.15 K, 4520 kPa	948.203 ± 1.9	1.078 ± 0.023
363.15 K, 9610 kPa	953.106 ± 1.9	1.129 ± 0.025
363.15 K, 14700 kPa	957.919 ± 1.9	1.174 ± 0.025
363.15 K, 19710 kPa	962.125 ± 1.9	1.226 ± 0.027
373.15 K, 100 kPa	934.753 ± 1.9	0.914 ± 0.02
373.15 K, 4520 kPa	939.138 ± 1.9	0.956 ± 0.021
373.15 K, 9620 kPa	944.359 ± 1.9	1 ± 0.022
373.15 K, 14680 kPa	948.986 ± 1.9	1.046 ± 0.023
373.15 K, 19910 kPa	953.741 ± 1.9	1.096 ± 0.024

Cc1ccccc1 [toluene]
Conditions	mass density, 298.15 K [kg/m3]	mass density, 323.15 K [kg/m3]	viscosity, 298.15 K [mPa·s]	viscosity, 323.15 K [mPa·s]
100 kPa	862.5 ± 1.7	–	0.555 ± 0.012	–
120 kPa	–	840.467 ± 1.7	–	0.425 ± 0.01
2300 kPa	864.389 ± 1.7	–	0.569 ± 0.013	–
3340 kPa	–	843.459 ± 1.7	–	0.431 ± 0.01
4400 kPa	865.888 ± 1.7	–	0.58 ± 0.013	–
6340 kPa	–	846.144 ± 1.7	–	0.448 ± 0.01
7430 kPa	868.038 ± 1.7	–	0.593 ± 0.013	–
9600 kPa	–	848.793 ± 1.7	–	0.461 ± 0.011
10400 kPa	870.54 ± 1.8	–	0.597 ± 0.013	–
12470 kPa	871.736 ± 1.8	–	0.613 ± 0.014	–
12750 kPa	–	851.586 ± 1.7	–	0.464 ± 0.011
14490 kPa	873.496 ± 1.8	–	0.617 ± 0.014	–
14770 kPa	–	853.276 ± 1.7	–	0.466 ± 0.011
